# Tested on: 422866-222-R5-J1-PDC complex spheroid viability
# Experiment: Anticancer human tumor 422866-222-R5-J1-PDC patient-derived pancreatic adenocarcinoma cell line growth inhibition [POLQ]
# Settings: for IC50: curve of first compound; for viability, T/C: stronger effect = lower value
# Experimental: Multicellular complex tumor spheroid response to Polymerase (POL) inhibitors (novobiocin, ART-558, RP6685) in combination with a variety of drugs and investigational agents in selected tumor cell lines
# The POL inhibitors (novobiocin, ART-558, and RP6685) were evaluated both individually and in combination with standard of care and investigational anticancer small molecules within a complex spheroid model of solid tumors. . Complex spheroids include a stromal component modeled by human endothelial cells (HUVEC) and fibroblasts modeled by human mesenchymal stem cells (MSCs). The concentration ranges selected for each drug and investigational agent were based upon clinically achievable concentrations if the clinical Cmax of the agent was known.
# Compounds. The drugs and investigational agents: novobiocin (NSC847541), ART-558 (NSC835418), RP-6685 (NSC848927), peposertib (NSC802822), ceralasertib (NSC780249), elimusertib (NSC800525), camonsertib (NSC841442), AZD-1390 (NSC803789), olaparib (NSC753686), talazoparib (NSC767125), rucaparib (NSC756644), sotorasib (NSC818433), MRTX-1133 (NSC836407), SN-38 (NSC673596), topotecan (NSC609699), epotoside (NSC141540), doxorubicin (NSC123127), gemcitabine (NSC613327), 5-fluorouracil (NSC19893), paclitaxel (NSC125973), vemurafenib (NSC761431), MSA-2 (NSC828583), SN-011 (NSC837082), adavosertib (NSC754352), prexasertib (NSC758257), carboplatin (NSC241240) and oxaliplatin (NSC266046), were obtained from the National Cancer Institute (NCI) Developmental Therapeutics Program Chemical Repository (21). The FDA-approved anticancer drug set is available from the Developmental Therapeutics Program at https://dtp.cancer.gov/organization/dscb/obtaining/. […] The stock solutions were prepared in dimethyl sulfoxide (DMSO, Sigma-Aldrich, St. Louis, MO, cat. D2650), except for the platinum compounds which were prepared in saline (Quality Biological, Gaithersburg, MD, cat. 114-055-101), at 800-fold the tested concentration and stored at -70 degrees C prior to their use. All drugs and investigational agents were tested over a range starting from a high concentration at or near the clinical Cmax and decreasing in half-log increments. If the clinical Cmax for an agent had not been determined, the highest concentration tested was 10 microM, except for SN-38, which was tested at a high concentration of 1 microM.
# Cell Culture. All cells were maintained in an incubator at 37 degrees C and 5% CO2 with 95% humidity. The PDC lines were cultured according to standard operating procedures established by the NCI PDMR (https://pdmr.cancer.gov). Table 3 of the manuscript, lists the cell lines along with the number of the three cell types plated to form the mct-spheroids and media for tumor cell growth. After thawing, all PDC lines, except 997537-175-T-J1-PDC and 415267-285-R-J2-PDC, were cultured in Matrigel-coated flasks prepared with a working solution of 1X Ham's F-12 nutrient mix, without supplementation (Thermo Fisher Scientific, cat. 11765054), 100 U/mL penicillin-streptomycin (Thermo Fisher Scientific, cat. 15140122), and 2.5% Matrigel (Corning Inc., Corning, NY, cat. 354248) for the first three passages. The two PDC lines 997537-175-T-J1-PDC and 415267-285-R-J2-PDC were cultured on uncoated flasks. The 857933-349-R-J2-PDC line was cultured in 6C/Colon 1B media containing advanced DMEM/F-12 (Thermo Fisher Scientific, cat. 12634028), 10 mM HEPES (Thermo Fisher Scientific, cat. 15630080), 1X GlutaMAX supplement (Thermo Fisher Scientific, cat. 35050061), 0.1 mg/mL primocin (InvivoGen, San Diego, CA, cat. ant-pm-2), 10% defined fetal bovine serum, heat inactivated (HyClone Laboratories Inc., Logan, UT, cat. SH30070.03HI), 50% L-WRN conditioned media (ATCC, cat. CRL-3276), 1.25 mM N-Acetyl-L-cysteine (Sigma-Aldrich, cat. A9165), 10 mM nicotinamide (Sigma-Aldrich, cat. N0636), 1X B-27 supplement (Thermo Fisher Scientific, cat. 17504044), 1X N-2 supplement (Thermo Fisher Scientific, cat. […]
# 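Further: spheroids exposed to compounds for one week before readout.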
# 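Wherever viability, T/C is given: percent of DMSO vehicle wells luminescence so 100% = untreated viability.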
compound,measurement,setting,value
O=C(c1cc(Cc2n[nH]c(=O)c3ccccc23)ccc1F)N1CCN(C(=O)C2CC2)CC1 + COC1C(OC(N)=O)C(O)C(Oc2ccc3c(O)c(NC(=O)c4ccc(O)c(CC=C(C)C)c4)c(=O)oc3c2C)OC1(C)C,IC50,second compound 0.0316 µM,< 31.6 nM
same,IC50,second compound 0.1 µM,< 31.6 nM
same,IC50,second compound 0.316 µM,< 31.6 nM
same,IC50,second compound 1 µM,< 31.6 nM
same,IC50,second compound 3.16 µM,< 31.6 nM
same,IC50,second compound 10 µM,< 31.6 nM
same,"viability, T/C","second compound 0.0316 µM, first compound 0.0316 µM",40.5%
same,"viability, T/C","second compound 0.0316 µM, first compound 0.1 µM",40.1%
same,"viability, T/C","second compound 0.0316 µM, first compound 0.316 µM",42.3%
same,"viability, T/C","second compound 0.0316 µM, first compound 1 µM",38.2%
same,"viability, T/C","second compound 0.0316 µM, first compound 3.16 µM",34%
same,"viability, T/C","second compound 0.0316 µM, first compound 10 µM",27.5%
same,"viability, T/C","second compound 0.1 µM, first compound 0.0316 µM",40.1%
same,"viability, T/C","second compound 0.1 µM, first compound 0.1 µM",42.5%
same,"viability, T/C","second compound 0.1 µM, first compound 0.316 µM",41.2%
same,"viability, T/C","second compound 0.1 µM, first compound 1 µM",35.4%
same,"viability, T/C","second compound 0.1 µM, first compound 3.16 µM",36.4%
same,"viability, T/C","second compound 0.1 µM, first compound 10 µM",26.3%
same,"viability, T/C","second compound 0.316 µM, first compound 0.0316 µM",43.5%
same,"viability, T/C","second compound 0.316 µM, first compound 0.1 µM",35.9%
same,"viability, T/C","second compound 0.316 µM, first compound 0.316 µM",35.7%
same,"viability, T/C","second compound 0.316 µM, first compound 1 µM",37.9%
same,"viability, T/C","second compound 0.316 µM, first compound 3.16 µM",31%
same,"viability, T/C","second compound 0.316 µM, first compound 10 µM",27.5%
same,"viability, T/C","second compound 1 µM, first compound 0.0316 µM",35.9%
same,"viability, T/C","second compound 1 µM, first compound 0.1 µM",32%
same,"viability, T/C","second compound 1 µM, first compound 0.316 µM",37.1%
same,"viability, T/C","second compound 1 µM, first compound 1 µM",37.4%
same,"viability, T/C","second compound 1 µM, first compound 3.16 µM",27.4%
same,"viability, T/C","second compound 1 µM, first compound 10 µM",24.5%
same,"viability, T/C","second compound 3.16 µM, first compound 0.0316 µM",39.9%
same,"viability, T/C","second compound 3.16 µM, first compound 0.1 µM",34.6%
same,"viability, T/C","second compound 3.16 µM, first compound 0.316 µM",38.4%
same,"viability, T/C","second compound 3.16 µM, first compound 1 µM",36.7%
same,"viability, T/C","second compound 3.16 µM, first compound 3.16 µM",33.7%
same,"viability, T/C","second compound 3.16 µM, first compound 10 µM",28.3%
same,"viability, T/C","second compound 10 µM, first compound 0.0316 µM",38.9%
same,"viability, T/C","second compound 10 µM, first compound 0.1 µM",30.9%
same,"viability, T/C","second compound 10 µM, first compound 0.316 µM",35.7%
same,"viability, T/C","second compound 10 µM, first compound 1 µM",32.9%
same,"viability, T/C","second compound 10 µM, first compound 3.16 µM",29.3%
same,"viability, T/C","second compound 10 µM, first compound 10 µM",27.8%

# Source: PubChem BioAssay AID1963844 (Molecular Pharmacology Branch, DTP, NCI, 2024)
